Drawing on a melting point compilation (Tetko et al.; mined from patent text by program, amines drawn as free bases though some values may be those of a salt), this text covers melting point for 62 compounds.

The structures appear in SMILES notation.

For orientation: melting point means the temperature of the solid-liquid transition. The compound `COC(=O)c1cc2c(s1)[C@@H](N1CCCCC1=O)[C@H](OCc1ccccc1)C(C)(C)O2` (relative stereo) came in with a melting point of 144 to 145 °C.

The compound `COc1cc(C)c2ccccc2n1` showed a melting point of 181 to 191 °C. Compound `CC(C)(C)c1ccc(C(=O)Nc2ccccc2C(=O)NCCc2ncc[nH]2)cc1` displayed a melting point of 127 to 132 °C. As for `O=C(O)COc1c(-c2cccc(Cl)c2)cc(C(=O)NCCCCCCCCOCc2ccc(Cl)cc2)cc1-c1cccc(Cl)c1`, the figure is 128 to 131 °C; as for `O=C(O)c1ccccc1SCCCCOc1ccc(C=Cc2ccncc2)cc1`, 229 to 231 °C. `O=[N+]([O-])c1ccc2[nH]cc(C3=CCNCC3)c2c1` showed a melting point of 250 °C.

On to `C[C@@H](Nc1nnc(-c2ccccc2)c2occc12)C1CCCCC1`, for which the melting point is 126 to 130 °C.

Compound `CS(=O)(=O)N1CCCn2c(nc3c(N)nc4cc(Br)ccc4c32)C1` showed a melting point of 303 °C.

Compound `CC(c1ccccc1)c1cc2c(=O)[nH]c(N)nc2s1` (configuration not stated) yielded a melting point of 260 to 270 °C. As for `COc1ccc(C2CCc3ccccc3C2O)cc1` (configuration not stated), the figure is 89 to 90.5 °C; as for `O=C(C=Cc1cc(OC(=O)c2ccccc2)c(OC(=O)c2ccccc2)c([N+](=O)[O-])c1)c1ccccc1`, 206 to 210 °C; as for `CCCS(=O)c1cccnc1S(=O)(=O)NC(C)(C)C` (configuration not stated), 138 to 140 °C. The same measure for `COC(=O)[C@@H]1CSC(=S)N1CC(C)(C)S`: 126 to 127 °C; for `Cc1c(O)c(C=O)c2nc3c(O)ccc(C(=O)NCCN(C)C)c3nc2c1O`: above 250 °C; for `S=C(Oc1ccccc1)c1ccccc1`: 56 °C. As for `CCOCc1cc2cc(Br)ccc2oc1=Nc1ccccc1`, the figure is 78 to 80 °C; as for `CC(=O)c1cccc2ccc(CS(=O)(=O)N3CCOCC3)cc12`, 162 °C; as for `COC(=O)C(Cc1ccccc1)Oc1ccc2cc(-c3cnc(-c4cn(C)c5ccccc45)o3)ccc2c1` (configuration not stated), 58 to 61 °C. On to `CC(C)=CCC/C(C)=C/CC/C(C)=C/CC/C(C)=C/CON1C(=O)c2ccccc2C1=O`, for which the melting point fell in the range of 40 to 41 °C.

`CN1C(=O)C(NC(=O)Nc2ccccc2)N=C(c2ccccc2)c2ccccc21` (configuration not stated) had a melting point of 260 to 261 °C. As for `OCc1cc(CO)n(C(c2ccccc2)(c2ccccc2)c2ccccc2)n1`, the melting point lay in the range of 180 to 182 °C. `Cn1cc(-c2nsc(Cl)n2)c2ccccc21` returned a melting point of 93 to 94 °C. `O=c1c2c(Cc3cccc(O)c3)n[nH]c2c2cccnc2n1-c1ccccc1` displayed a melting point of 276 to 278 °C. Turning to `Cc1c(SCCCSCc2ccncc2)ccnc1CNc1cnc2ccccc2c1`, the melting point was in the range of 116 to 119 °C. The same measure for `C[Si](C)(C)OC1(C#N)CCC(C(=O)NCc2cccc3ccccc23)c2ccccc21` (configuration not stated): 55 to 56 °C. The same measure for `CCOC(=O)CCc1ccc2c(CCC(=O)OCC)c(O)ccc2n1`: 74 to 76 °C.

`O=C(Nc1nc2ccccc2n1CCCN1CCNCC1)c1ccc(C(F)(F)F)cc1`: the melting point was 184 to 185 °C. Turning to `COc1cccc(NC(=O)NC2N=C(c3ccccc3)c3ccccc3N(CC(=O)N3CCCC3)C2=O)c1` (configuration not stated), the melting point was in the range of 193 to 194 °C.

Consider `COC(=O)C(C)Oc1ccc(NC(=O)CCCCCO)cc1` (configuration not stated), for which the melting point is 62 to 64.5 °C. `CC1=Nc2ccccc2CC(c2ccc(C)s2)N1C` (configuration not stated) yielded a melting point of 139 to 140 °C. For `COc1cc(OCc2ccccn2)ccc1/C=C/c1cc(/C=C/c2ccc3[nH]nnc3c2)n[nH]1`, the melting point lay in the range of 113 to 120 °C. The compound `CN(C)S(=O)(=O)CCc1ccc2[nH]cc(CC#N)c2c1` gave a melting point of 105 to 107 °C.

As to `COc1ccc(-c2cnnc(-c3ccc(C(F)(F)F)cc3F)c2N)cc1`, the melting point was in the range of 215 to 216 °C.

Compound `CNC(=NS(C)(=O)=O)NCc1cccc(-c2csc(N=C(N)N)n2)n1` had a melting point of 254 to 255 °C. For `C=CCN1C(=O)N(c2ccc([N+](=O)[O-])c(C(F)(F)F)c2)C(=O)C1(C)C`, the melting point turned out to be 105 °C. `Cc1ccc(-n2c(N)nc3ccccc32)cc1-c1ccco1` showed a melting point of 155 to 157 °C.

In turn, `COC(=O)C(NC(=O)C(NC(C)=O)(OC)C(Br)Br)=C(C)C` (configuration not stated) gave a melting point of 150 to 151 °C.

Consider `Cc1ccc(S(=O)(=O)OCC2Cc3c(F)ccc(Br)c3O2)cc1` (configuration not stated), for which the melting point was in the range of 100 to 103 °C. `CN(C)C=C1C(=O)CCc2c1cnn2C` had a melting point of 94 to 100 °C.

Compound `CCCCCCCC1CC(C(=O)O)C(=O)O1` (configuration not stated) had a melting point of 51 to 54 °C. Regarding `CCO[C@@H]1C[C@@H]2CN(C(=O)[C@@H](NC(=O)[C@H](C)NC)C3CCC(F)(F)CC3)[C@H](C(=O)N[C@@H]3CCOc4ccccc43)CN2C1`, the melting point came out at 179 °C. The compound `Cc1cc(Cl)c(C(=O)c2ccccc2)c(Cl)c1` had a melting point of 75.5 to 76.5 °C. As for `CN(C)c1nc2ccccc2n(-c2ccc(Cl)cc2)c1=O`, the figure is 235 to 237 °C; as for `COc1ccc(S(=O)(=O)Nc2ccc(Cl)cc2/C=C/c2ccncc2)cc1`, 175 to 176 °C; as for `CC1(C)N=C(n2ccccc2=O)c2cc(C#N)ccc2O1`, 115 to 116 °C. `Cn1ncnc1COc1nc2c(-c3ccccc3F)nncn2c1C1CCC1`: the melting point turned out to be 120 °C. In turn, `COc1cc2c(cc1OC)CC(NC(=O)C1CCCN1C(C)=O)CC2` (configuration not stated) gave a melting point of 63 to 65 °C. As for `O=C(C(=Cc1ccc(F)cc1)S(=O)(=O)c1ccccc1)c1ccccc1`, the melting point was in the range of 142 to 143 °C. Compound `COC(=O)c1c(Br)c(F)cc2[nH]ncc12` yielded a melting point of 169 to 171 °C.

The compound `CCc1cc(Nc2cc(Cl)c(C(F)(F)F)cc2[N+](=O)[O-])c(OC)cc1OC` showed a melting point of 161 to 162 °C. The compound `COc1ccc(N2CCN(c3ccc(NC(=O)NCC(OC)OC)cc3)CC2)cc1` came in with a melting point of 225 °C. `CC#CCOc1ccc(S(=O)(=O)N(C)C(C(=O)NO)C(C)(C)SCCN(CC)CC)cc1` (configuration not stated) showed a melting point of 55 to 57 °C. `CCOC(=O)c1ccc(N)cc1F` gave a melting point of 110 to 112 °C. The compound `Cc1cc2c([C@@H]3C[C@H]3CNC(=O)c3ccccc3)cccn2n1` (relative stereo) registered a melting point of 112 to 113 °C. For the compound `CCC(CC)OC(=O)c1ccc(C(=O)NS(=O)(=O)c2ccc(CCNC(=O)c3cc(OC)ccc3Cl)cc2)cn1`, the melting point was 174 to 176 °C. `COc1cccc2c1CCC(CN1C(=O)c3ccccc3C1=O)C2` (configuration not stated) yielded a melting point of 143 to 144 °C. For `Cc1cc2c(c(C)c1Br)C(c1ccccc1)CO2` (configuration not stated), the melting point was in the range of 135 to 136 °C. As for `CCCCCCCCN(C[C@H]1CC[C@@H](CN(CCCCCCCC)C(=O)Nc2ccc(N(C)C)cc2)CC1)C(=O)Nc1ccc(N(C)C)cc1`, the figure is 105 to 107 °C; as for `O=C(NCc1ccccc1)Nc1ccc(N2CC(c3ccccc3)CC2=O)cn1` (configuration not stated), 172 to 173 °C. As to `CC(C)(C)OC(=O)NCCOc1noc2ccc(F)c(C#N)c12`, the melting point lay within 116 to 117 °C.

In turn, `C[C@H](OC(=O)NCCC(F)(F)C(F)(F)F)C(=O)N[C@@H]1C(=O)N(CCO)c2ccccc2-c2ccccc21` registered a melting point of 181 to 184 °C. In turn, `CCOC(=O)C1=C(NC(=O)Nc2cc(C(=O)OC(C)C)c(F)cc2Br)CCC1` yielded a melting point of 166 to 168 °C.
